Laboratory results published in the supplement of paper PMC10733146.

How the values were obtained:
Experiment in all cases: viability relative to DMSO control (fraction); higher = less drug effect (more viable cells)
Settings in all cases: 48 h
[1] = system: primary ALL patient cells (S048)
Summary of the method: (§1)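 In 384-well plates with compounds pre-plated at five concentrations (one well per concentration), primary mononuclear tumour cells were plated at 4 × 10^4 cells per well. The cells came from blood or bone marrow by Ficoll isolation or from processed lymph node, and were used fresh or cryopreserved. Culture ran for 48 h at 37 °C and 5% CO2 in RPMI-1640 containing penicillin/streptomycin, L-glutamine and human serum. Viability was read as CellTiter-Glo luminescence, normalised to the median of 16 inner DMSO wells.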

[2] = system: primary ALL patient cells (S088)
Summary of the method: as §1

[3] = system: primary AML patient cells (S002)
Summary of the method: as §1

[4] = system: primary AML patient cells (S009)
Summary of the method: as §1

[5] = system: primary AML patient cells (S017)
Summary of the method: as §1

[6] = system: primary AML patient cells (S019)
Summary of the method: as §1

[7] = system: primary AML patient cells (S021)
Summary of the method: as §1

[8] = system: primary AML patient cells (S025)
Summary of the method: as §1

[9] = system: primary AML patient cells (S060)
Summary of the method: as §1

[10] = system: primary AML patient cells (S071)
Summary of the method: as §1

[11] = system: primary AML patient cells (S072)
Summary of the method: as §1

[12] = system: primary AML patient cells (S079)
Summary of the method: as §1

[13] = system: primary AML patient cells (S089)
Summary of the method: as §1

[14] = system: primary AML patient cells (S091)
Summary of the method: as §1

[15] = system: primary B-PLL patient cells (S016)
Summary of the method: as §1

[16] = system: primary DLBCL patient cells (S082)
Summary of the method: as §1

[17] = system: primary FL patient cells (S022)
Summary of the method: as §1

[18] = system: primary FL patient cells (S087)
Summary of the method: as §1

[19] = system: primary MCL patient cells (S053)
Summary of the method: as §1

## CC#CC(=O)N1CCC[C@H]1c1nc(-c2ccc(C(=O)Nc3ccccn3)cc2)c2c(N)nccn12 [Acalabrutinib (ACP-196)]
[1]; 0.008 µM
  viability: 1.05
[1]; 0.04 µM
  viability: 0.955
[1]; 0.2 µM
  viability: 0.975
[1]; 1 µM
  viability: 0.962
[1]; 5 µM
  viability: 1.03
[2]; 0.008 µM
  viability: 1.04
[2]; 0.04 µM
  viability: 1.04
[2]; 0.2 µM
  viability: 1.04
[2]; 1 µM
  viability: 1.02
[2]; 5 µM
  viability: 1.16
[3]; 0.008 µM
  viability: 0.98
[3]; 0.04 µM
  viability: 1.15
[3]; 0.2 µM
  viability: 1.03
[3]; 1 µM
  viability: 0.952
[3]; 5 µM
  viability: 1.04
[4]; 0.008 µM
  viability: 1.19
[4]; 0.04 µM
  viability: 1.11
[4]; 0.2 µM
  viability: 1.16
[4]; 1 µM
  viability: 1.09
[4]; 5 µM
  viability: 1.12
[5]; 0.008 µM
  viability: 1.32
[5]; 0.04 µM
  viability: 1.1
[5]; 0.2 µM
  viability: 1.15
[5]; 1 µM
  viability: 1.36
[5]; 5 µM
  viability: 0.997
[6]; 0.008 µM
  viability: 1.09
[6]; 0.04 µM
  viability: 1.2
[6]; 0.2 µM
  viability: 1.08
[6]; 1 µM
  viability: 1.12
[6]; 5 µM
  viability: 1.06
[7]; 0.008 µM
  viability: 1.13
[7]; 0.04 µM
  viability: 1.05
[7]; 0.2 µM
  viability: 1.13
[7]; 1 µM
  viability: 1.1
[7]; 5 µM
  viability: 1.03
[8]; 0.008 µM
  viability: 1.06
[8]; 0.04 µM
  viability: 1.26
[8]; 0.2 µM
  viability: 1.04
[8]; 1 µM
  viability: 1.05
[8]; 5 µM
  viability: 1.05
[9]; 0.008 µM
  viability: 1.08
[9]; 0.04 µM
  viability: 1.06
[9]; 0.2 µM
  viability: 1.04
[9]; 1 µM
  viability: 1.05
[9]; 5 µM
  viability: 1.05
[10]; 0.008 µM
  viability: 1.06
[10]; 0.04 µM
  viability: 1.02
[10]; 0.2 µM
  viability: 1.01
[10]; 1 µM
  viability: 1.01
[10]; 5 µM
  viability: 0.994
[11]; 0.008 µM
  viability: 0.995
[11]; 0.04 µM
  viability: 0.971
[11]; 0.2 µM
  viability: 0.989
[11]; 1 µM
  viability: 0.941
[11]; 5 µM
  viability: 0.971
[12]; 0.008 µM
  viability: 0.948
[12]; 0.04 µM
  viability: 0.906
[12]; 0.2 µM
  viability: 0.859
[12]; 1 µM
  viability: 1.11
[12]; 5 µM
  viability: 0.965
[13]; 0.008 µM
  viability: 0.975
[13]; 0.04 µM
  viability: 0.996
[13]; 0.2 µM
  viability: 0.91
[13]; 1 µM
  viability: 0.679
[13]; 5 µM
  viability: 0.629
[14]; 0.008 µM
  viability: 0.945
[14]; 0.04 µM
  viability: 1.06
[14]; 0.2 µM
  viability: 0.979
[14]; 1 µM
  viability: 1.01
[14]; 5 µM
  viability: 1.07
[15]; 0.008 µM
  viability: 0.748
[15]; 0.04 µM
  viability: 0.627
[15]; 0.2 µM
  viability: 0.601
[15]; 1 µM
  viability: 0.549
[15]; 5 µM
  viability: 0.6
[16]; 0.008 µM
  viability: 0.804
[16]; 0.04 µM
  viability: 0.675
[16]; 0.2 µM
  viability: 0.559
[16]; 1 µM
  viability: 0.462
[16]; 5 µM
  viability: 0.447
[17]; 0.008 µM
  viability: 1.1
[17]; 0.04 µM
  viability: 1.12
[17]; 0.2 µM
  viability: 1.11
[17]; 1 µM
  viability: 1.09
[17]; 5 µM
  viability: 1.05
[18]; 0.008 µM
  viability: 1.08
[18]; 0.04 µM
  viability: 1.03
[18]; 0.2 µM
  viability: 1.07
[18]; 1 µM
  viability: 0.994
[18]; 5 µM
  viability: 1.04
[19]; 0.008 µM
  viability: 0.711
[19]; 0.04 µM
  viability: 0.636
[19]; 0.2 µM
  viability: 0.656
[19]; 1 µM
  viability: 0.587
[19]; 5 µM
  viability: 0.66

## CCN1CCN(Cc2ccc(Nc3ncc(F)c(-c4cc(F)c5nc(C)n(C(C)C)c5c4)n3)nc2)CC1
[1]; 0.024 µM
  viability: 0.546
[1]; 0.12 µM
  viability: 0.443
[1]; 0.6 µM
  viability: 0.263
[1]; 3 µM
  viability: 0.0396
[1]; 15 µM
  viability: 0.00487
[2]; 0.024 µM
  viability: 0.616
[2]; 0.12 µM
  viability: 0.625
[2]; 0.6 µM
  viability: 0.517
[2]; 3 µM
  viability: 0.169
[2]; 15 µM
  viability: 0.012
[3]; 0.024 µM
  viability: 0.84
[3]; 0.12 µM
  viability: 0.894
[3]; 0.6 µM
  viability: 0.884
[3]; 3 µM
  viability: 0.363
[3]; 15 µM
  viability: 0.139
[4]; 0.024 µM
  viability: 1.05
[4]; 0.12 µM
  viability: 0.955
[4]; 0.6 µM
  viability: 1.03
[4]; 3 µM
  viability: 0.451
[4]; 15 µM
  viability: 0.0338
[5]; 0.024 µM
  viability: 1.01
[5]; 0.12 µM
  viability: 1.14
[5]; 0.6 µM
  viability: 1.1
[5]; 3 µM
  viability: 0.73
[5]; 15 µM
  viability: 0.179
[6]; 0.024 µM
  viability: 1.18
[6]; 0.12 µM
  viability: 0.939
[6]; 0.6 µM
  viability: 1.13
[6]; 3 µM
  viability: 0.232
[6]; 15 µM
  viability: 0.0632
[7]; 0.024 µM
  viability: 1.01
[7]; 0.12 µM
  viability: 0.962
[7]; 0.6 µM
  viability: 1.22
[7]; 3 µM
  viability: 0.377
[7]; 15 µM
  viability: 0.0751
[8]; 0.024 µM
  viability: 1.11
[8]; 0.12 µM
  viability: 1.02
[8]; 0.6 µM
  viability: 1.1
[8]; 3 µM
  viability: 0.372
[8]; 15 µM
  viability: 0.0187
[9]; 0.024 µM
  viability: 1.08
[9]; 0.12 µM
  viability: 1.01
[9]; 0.6 µM
  viability: 0.946
[9]; 3 µM
  viability: 0.534
[9]; 15 µM
  viability: 0.112
[10]; 0.024 µM
  viability: 0.728
[10]; 0.12 µM
  viability: 0.533
[10]; 0.6 µM
  viability: 0.39
[10]; 3 µM
  viability: 0.0958
[10]; 15 µM
  viability: 0.0535
[11]; 0.024 µM
  viability: 0.893
[11]; 0.12 µM
  viability: 1.03
[11]; 0.6 µM
  viability: 0.73
[11]; 3 µM
  viability: 0.251
[11]; 15 µM
  viability: 0.0132
[12]; 0.024 µM
  viability: 0.969
[12]; 0.12 µM
  viability: 1.07
[12]; 0.6 µM
  viability: 1.03
[12]; 3 µM
  viability: 0.598
[12]; 15 µM
  viability: 0.0143
[13]; 0.024 µM
  viability: 0.589
[13]; 0.12 µM
  viability: 0.962
[13]; 0.6 µM
  viability: 0.576
[13]; 3 µM
  viability: 0.0472
[13]; 15 µM
  viability: 0.0221
[14]; 0.024 µM
  viability: 0.77
[14]; 0.12 µM
  viability: 0.939
[14]; 0.6 µM
  viability: 0.849
[14]; 3 µM
  viability: 0.569
[14]; 15 µM
  viability: 0.333
[15]; 0.024 µM
  viability: 0.997
[15]; 0.12 µM
  viability: 1.09
[15]; 0.6 µM
  viability: 0.984
[15]; 3 µM
  viability: 0.505
[15]; 15 µM
  viability: 0.0112
[16]; 0.024 µM
  viability: 0.915
[16]; 0.12 µM
  viability: 1.01
[16]; 0.6 µM
  viability: 1.19
[16]; 3 µM
  viability: 0.543
[16]; 15 µM
  viability: 0.0123
[17]; 0.024 µM
  viability: 1.12
[17]; 0.12 µM
  viability: 1.01
[17]; 0.6 µM
  viability: 1.06
[17]; 3 µM
  viability: 0.616
[17]; 15 µM
  viability: 0.00982
[18]; 0.024 µM
  viability: 1.01
[18]; 0.12 µM
  viability: 0.934
[18]; 0.6 µM
  viability: 0.962
[18]; 3 µM
  viability: 0.763
[18]; 15 µM
  viability: 0.0109
[19]; 0.024 µM
  viability: 0.896
[19]; 0.12 µM
  viability: 0.737
[19]; 0.6 µM
  viability: 0.565
[19]; 3 µM
  viability: 0.144
[19]; 15 µM
  viability: 0.0105
